Our source for the IC50 values is BindingDB's records for doi:10.1080/14756360310001612211 (Kobe Gakuin University, 2003).

Values joined by “and” are separate entries in the source; they are usually repeats but may differ in a detail not shown here. Equal values may be shown once. Some results are limits rather than exact numbers.

The target in this assay is Proto-oncogene tyrosine-protein kinase Src (Gallus gallus, UniProt P00523). The assay can be described thus: Tyrosine Kinase Assay. As to conditions: 37 °C. From the text: Takara Universal Tyrosine Assay Kit (Takara-bio co) was used to test the synthesized compounds. This assay kit determines the inhibition activities of inhibitors against a substrate of tyrosine kinase.

On to `O=C(OCCN(N1CCCCC1)N1CCCCC1)c1cc2ccccc2n1-c1ccccc1` [Indole ester derivative, 16], for which the IC50 (commonly the concentration at which inhibition is half-maximal) was 306 µM and > 1000 µM and 279 µM. The same measure for `CC(CN(C)C)OC(=O)c1cc2ccccc2[nH]1` (stereo not drawn) [Indole ester derivative, 26]: greater than 500 µM; for `CC(CN(C)C)OC(=O)c1cc2ccccc2n1-c1ccccc1` (stereo not drawn) [Indole ester derivative, 21]: greater than 1000 µM. Consider `CN(C)CCOC(=O)c1cc2ccccc2n1Cc1ccccc1` [Indole ester derivative, 6], for which the IC50 is > 500 µM and 631 µM. The same measure for `CCN(CC)CCOC(=O)c1cc2ccccc2[nH]1` [Indole ester derivative, 23]: greater than 1000 µM; for `CC(CN(C)C)OC(=O)c1cc2ccccc2n1Cc1ccccc1` (stereo not drawn) [Indole ester derivative, 10]: greater than 1000 µM; for `O=C(OCCN(N1CCCCC1)N1CCCCC1)c1cc2ccccc2[nH]1` [Indole ester derivative, 27]: 830 µM and > 500 µM. The same measure for `O=C(OCCN(n1cccc1)n1cccc1)c1cc2ccccc2[nH]1` [Indole ester derivative, 24]: 21.4 µM. With `CCN(CC)CCOC(=O)c1cc2ccccc2n1Cc1ccccc1` [Indole ester derivative, 7], the IC50 was > 1000 µM and 614 µM. `O=C(OCCN(n1cccc1)n1cccc1)c1cc2ccccc2n1Cc1ccccc1` [Indole ester derivative, 8]: the IC50 is > 1000 µM and 215 µM.

On to `O=C(OCCN(n1cccc1)n1cccc1)c1cc2ccccc2n1-c1ccccc1` [Indole ester derivative, 19], for which the IC50 was 258 µM and > 1000 µM. Next, `CN(C)CCOC(=O)c1cc2ccccc2n1-c1ccccc1` [Indole ester derivative, 17]: greater than 1000 µM.

With `CCN(CC)CCOC(=O)c1cc2ccccc2n1-c1ccccc1` [Indole ester derivative, 18], the IC50 was > 1000 µM and 817 µM.
